Laboratory results from patent US6426355B1, “Heterocyclic carboxamide-containing thiourea inhibitors of herpes viruses containing phenylenediamine group” (American Home Products, priority 1998, dated 2002).
In brackets after ≈: the same amount, converted by molar mass.

What was measured:
[1] = system: HCMV recombinant mutant virus (RV145); experiment: HCMV microtiter plate assay (beta-glucuronidase reporter); type: cell-based, Human Cytomegalovirus; details: for IC50 (ug/ml) HCMV: HCMV in human foreskin fibroblasts; for IC50: Human betaherpesvirus 5, Fibroblast, read-out: IC50 (ug/ml) HCMV
Procedure, shortened: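 Human foreskin fibroblasts were infected with RV145 in the presence of inhibitor. β-glucuronidase under a viral promoter served as the replication marker. At 96 h post-infection, lysates in pH 7.0 phosphate with Triton X-100/sarkosyl were assayed colorimetrically or fluorometrically, and IC50 was estimated from varying inhibitor amounts.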

HSV-1 = experiment: HSV Antiviral (ELISA) assay; type: cell-based; details: for IC50 (ug/ml) HSV: HSV-1 in Vero cells; for IC50: Human alphaherpesvirus 1, HSV-1 in Vero cells, read-out: IC50 (ug/ml) HSV
Procedure, shortened: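 Vero cells in DMEM/2% FBS pretreated with compound 30 min before HSV-1 infection (MOI 0.006), then ~24 h at 37 °C. Viral gD detected by ELISA with β-galactosidase secondary and 4-methylumbelliferyl-galactoside (ex 365/em 450 nm); IC50 from fluorescence versus untreated infected cells.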

VZV strain Ellen = experiment: VZV Antiviral (ELISA) assay; type: cell-based; details: for IC50 (ug/ml) VZV / % inhibition 10 ug/ml VZV: VZV strain Ellen in HFF cells; for % inhibition 10 ug/ml VZV: at 10 ug/ml; for IC50: Human alphaherpesvirus 3, VZV strain Ellen in HFF cells, read-out: IC50 (ug/ml) VZV; for inhibition at 10 µg/mL: Human alphaherpesvirus 3, read-out: % inhibition 10 ug/ml VZV, at 10 ug/ml, VZV strain Ellen in HFF cells
Procedure, shortened: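 Cell-based VZV (Ellen) spread assay in HFF, 3-day compound exposure in 2% FBS medium. Viral antigen quantified by fluorescent β-galactosidase ELISA; IC50 from inhibition of signal.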

SMILES | IC50 (ug/ml) HCMV [1] [µg/mL] | IC50 (ug/ml) HSV (HSV-1) [µg/mL] | IC50 (ug/ml) VZV (VZV strain Ellen) [µg/mL] | % inhibition 10 ug/ml VZV (VZV strain Ellen) [%] | IC50 [1] [µg/mL] | IC50 (HSV-1) [µg/mL] | IC50 (VZV strain Ellen) [µg/mL] | inhibition at 10 µg/mL (VZV strain Ellen) [%]
COc1cc(OC)c(NC(=S)Nc2ccc(NC(=O)c3ccnc4ccccc34)cc2)cc1Cl [Example 225] | >10 | 1 (≈ 2.03 µM) | >10 | 30 |  |  |  | 
Nc1nccc(-c2ccc(NC(=S)Nc3ccc(NC(=O)c4csnn4)cc3)cc2Cl)n1 [Example 501] | 0.032 (≈ 0.0663 µM) | >10 | >10 | 10 |  |  |  | 
COc1cc(OC)c(NC(=S)Nc2ccc(NC(=O)c3nnsc3C)cc2)cc1Cl [Example 279] | >10 | >10 | >10 |  |  |  |  | 
COc1c(Cl)cc(NC(=S)Nc2ccc(NC(=O)c3cccc(F)c3)cc2)cc1Cl [Example 922, N-{4-[3-(3,5-Dichloro-4-methoxy-phenyl)-thioureido]-phenyl}-3-fluoro-benzamide] |  |  |  |  | 0.01 (≈ 0.0215 µM) | > 10 | 7 (≈ 15.1 µM) | 84
COC(=O)c1cc(NC(=S)Nc2ccc(NC(=O)c3ccco3)cc2)cc(C(=O)OC)c1 [Example 469] | 0.1 (≈ 0.221 µM) | >10 | >10 | 54 |  |  |  | 
CC(C)CN(C)c1cc(NC(=S)Nc2ccc(NC(=O)c3csnn3)cc2)cc(C(F)(F)F)c1 [Example 594] | 0.011 (≈ 0.0216 µM) | >10 | >10 |  |  |  |  | 
O=C(CN1CCSCC1)Nc1ccc(NC(=S)Nc2ccc(NC(=O)c3ccco3)cc2)cc1Cl [Example 406] | 0.12 (≈ 0.226 µM) | >10 | >10 | 28 |  |  |  | 
O=C(Nc1ccc(NC(=S)Nc2ccc(-c3cc[nH]n3)c(Cl)c2)cc1)c1csnn1 [Example 991, [1,2,3]Thiadiazole-4-carboxylic acid (4-{3-[3-chloro-4-(1H-pyrazol-3-yl)-phenyl]-thioureido}-phenyl)-amide] |  |  |  |  | 0.022 (≈ 0.0483 µM) | > 10 | > 10 | 3
CSc1ccc(NC(=S)Nc2ccc(NC(=O)c3ccccn3)cc2)cc1Cl [Example 351] | 0.3 (≈ 0.699 µM) | 3 (≈ 6.99 µM) | 3.5 (≈ 8.16 µM) | 90 |  |  |  | 
O=C(Nc1ccc(NC(=S)Nc2ccc3[nH]cnc3c2)cc1)c1ccco1 [Example 494] | 3.5 (≈ 9.27 µM) | >10 | >10 | 6 |  |  |  | 
COc1cc(OC)c(NC(=S)Nc2ccc(NC(=O)c3cccn3C)cc2)cc1Cl [Example 147] | >50 | 10 (≈ 22.5 µM) | >10 | 42 |  |  |  | 
CC1CCCCN1CC(=O)Nc1ccc(NC(=S)Nc2ccc(NC(=O)c3ccco3)cc2)cc1Cl (stereo not shown) [Example 424] | 0.09 (≈ 0.171 µM) | 3 (≈ 5.7 µM) | 0.7 (≈ 1.33 µM) | 103 |  |  |  | 
CC(=O)Nc1cccc(NC(=S)Nc2ccc(NC(=O)c3ccco3)cc2)c1 [Example 462] | 1 (≈ 2.54 µM) | >10 | >10 | 6 |  |  |  | 
CC(C)c1nc(C(=O)Nc2ccc(NC(=S)Nc3ccc(Cl)c(Cl)c3)cc2)cs1 [Example 1132, 2-Isopropyl-thiazole-4-carboxylic acid {4-[3-(3,4-dichloro-phenyl)-thioureido]-phenyl}-amide] |  |  |  |  | 1.2 (≈ 2.58 µM) | 2.6 (≈ 5.59 µM) | 3.9 (≈ 8.38 µM) | 
Nc1cccc(NC(=S)Nc2ccc(NC(=O)c3ccco3)cc2)c1 [Example 430] | 0.4 (≈ 1.14 µM) | >10 | >10 |  |  |  |  | 
CC(O)c1cccc(NC(=S)Nc2ccc(NC(=O)c3ccco3)cc2)c1 (stereo not shown) [Example 472] | 0.8 (≈ 2.1 µM) | >10 | >10 | 31 |  |  |  | 
O=C(Nc1ccc(NC(=S)Nc2cc(N3CCCCC3)cc(C(F)(F)F)c2)cc1)c1csnn1 [Example 535] | 0.016 (≈ 0.0316 µM) | >10 | >10 |  |  |  |  | 
O=C(CN1CCOCC1)Nc1ccc(NC(=S)Nc2ccc(NC(=O)c3ccco3)cc2)cc1Cl [Example 368] | 0.35 (≈ 0.681 µM) | >10 | >10 | 20 |  |  |  | 
CCCCc1nc(C(=O)Nc2ccc(NC(=S)Nc3ccc(Cl)c(Cl)c3)cc2)cs1 [Example 1134, 2-Butyl-thiazole-4-carboxylic acid {4-[3-(3,4-dichloro-phenyl)-thioureido]-phenyl}-amide] |  |  |  |  | 1 (≈ 2.09 µM) | 2.4 (≈ 5.01 µM) | 1.6 (≈ 3.34 µM) | 
COc1cc(OC)c(NC(=S)Nc2ccc(NC(=O)c3snnc3-c3ccccc3)cc2)cc1Cl [Example 264] | >10 | >10 | >10 | 28 |  |  |  | 
COc1cc(OC)c(NC(=S)Nc2ccc(NC(=O)c3csnn3)cc2)cc1Cl [Example 173] | 0.08 (≈ 0.178 µM) | >10 | >10 | 31 |  |  |  | 
O=C(Nc1ccc(NC(=S)Nc2cccc(CO)c2)cc1)c1ccco1 [Example 488] | 1.2 (≈ 3.27 µM) | >10 | >10 | 13 |  |  |  | 
O=C(Nc1ccc(NC(=S)NCc2ccccc2)cc1)c1ccco1 [Example 544] | 0.02 (≈ 0.0569 µM) | >10 | >10 |  |  |  |  | 
CC(NC(=S)Nc1ccc(NC(=O)c2ccsc2)cc1)c1ccc(F)cc1 (stereo not shown) [Example 1129, Thiophene-3-carboxylic acid (4-{3-[1-(4-fluoro-phenyl)-ethyl]-thioureido}-phenyl)-amide] |  |  |  |  | 1 (≈ 2.5 µM) | 1.9 (≈ 4.76 µM) | > 10 | 
CCCN(CCC)CC(=O)Nc1ccc(NC(=S)Nc2ccc(NC(=O)c3ccco3)cc2)cc1Cl [Example 411] | 0.024 (≈ 0.0454 µM) | 8 (≈ 15.1 µM) | 2 (≈ 3.79 µM) | 99 |  |  |  | 
COc1cc(OC)c(NC(=S)Nc2ccc(NC(=O)c3cc4ccccc4s3)cc2)cc1Cl [Example 153] | >10 | 2 (≈ 4.02 µM) | >10 | 8 |  |  |  | 
CC(NC(=S)Nc1ccc(NC(=O)c2csnn2)cc1)c1ccc(Br)cc1 (stereo not shown) [Example 647] | 0.007 (≈ 0.0151 µM) | >10 | 0.1 (≈ 0.216 µM) |  |  |  |  | 
O=C(Nc1ccc(NC(=S)Nc2ccccc2)cc1)c1ccco1 [Example 911, Furan-2-carboxylic acid [4-(3-phenyl-thioureido)-phenyl]-amide] |  |  |  |  | 0.3 (≈ 0.889 µM) | > 10 | > 10 | 25
Nc1ccc(Cl)cc1NC(=S)Nc1ccc(NC(=O)c2ccco2)cc1 [Example 440] | 0.3 (≈ 0.775 µM) | 1 (≈ 2.58 µM) | 9 (≈ 23.3 µM) |  |  |  |  | 
